Legend:
[1] = cited from earlier work
Procedure: Peptide-based drugs are prone to chemical degradation when presented to enzymes during systemic circulation. Therefore, the stability of the peptide constructs was examined in serum-supplemented media and during incubation in a state-of-the-art in vitro BBB model made up of primary BCECs co-cultured with primary rat astrocytes. Despite their common peptide nature, the stability varied markedly. […] The half-life of ^125I-labelled Tat ([…]) in mouse serum h ...

[2] = cited from earlier work; remark: listed apart in the source
From the text: We detected 0.4% ± 0.1% of injected dose/g of TAMRA-Tat in mouse brain homogenate, which is in line with a previous study reporting 0.1% of injected dose/g of ^111In-DOTA-labelled Tat ([…]) following 1-h circulation in mice. Moreover, less TAMRA-Tat-NR2B9c and TAMRA-Tat-N-dimer appeared to accumulate in the brain compared to TAMRA-Tat. This observation is in agreement with the observed BBB permeation by the Tat-conjugated peptides in live mice, supporting our earlier notion that cargo conjugation to Tat impacts its resulting brain delivery.

[3] = system: bovine BCECs co-cultured with rat astrocytes; assay: Peptide uptake into endothelial cells and astrocytes by confocal microscopy after fixation (bovine BBB model); assay type: cell-based; conditions: 10 µM or 100 µM TAMRA, 3 h, fixed cells, confocal microscopy (Figure S4)
Procedure: […] TEER was measured at room temperature using an Endohm 12 cup (World Precision Instruments, Sarasota, FL, USA) connected to a Millicell-ERS device (Millipore, Bedford, MA, USA). TEER was measured before application of the peptides and after each experiment. The bovine model had initial TEER values ranging from 771 to 1332 Ω·cm^2, whereas the mouse model had initial TEER values ranging from 136 to 217 Ω·cm^2.
To visualize the TAMRA-peptide taken up by the endothelial cells and astrocytes, the remaining filters (one per batch) from the permeation study using the in vitro bovine BBB model were prepared for confocal microscopy. After removal of the peptide solutions, the cells were fixed with 3% paraformaldehyde in PBS for 15 min at room temperature with horizontal shaking (90 rpm). The cells were washed thrice with PBS prior to permeabilization in 0.1% Triton X-100 in PBS for 5 min and blocking in 2% BSA in PBS for 30 min at room temperature with horizontal shaking (90 rpm). The filter inserts were cut out, divided into smaller pieces, and transferred to a 48-well plate to stain zonula ocludens-1 (ZO-1) in the BCECs and F-actin in the astrocytes. Filter pieces with BCECs facing upwards were incubated with a primary antibody directed against ZO-1 (1:100 in PBS with 2% BSA; Thermo Fischer Scientific, Bedford, MA, USA, no. 617300) for 2 h at room temperature. Subsequently, the filters were washed thrice for 5 min in PBS with 2% BSA prior to 30 min incubation with an Alexa-488-conjugated secondary antibody (1:100 in PBS with 2% BSA; Thermo Fischer Scientific, Bedford, MA, USA, no. A11008). Filter pieces with astrocytes facing upwards were incubated with Alexa-488-conjugated phalloidin (1:133 in PBS with 2% BSA; Thermo Fischer Scientific, Bedford, MA, USA) for 30 min at room temperature and washed thrice for 5 min in PBS with 2% BSA. The filter pieces were mounted on glass slides under coverslips using Immu-Mount™ mounting media and imaged using single wavelength excitation a Zeiss 510 laser-scanning confocal microscope (Carl Zeiss, Jena, Germany).

[4] = differentiation medium (cell media supplemented with 10% fetal bovine serum (FBS)); conditions: 37 °C, up to 4 h
[5] = luminal incubation on bovine brain endothelial cells co-cultured with rat astrocytes in FBS-free differentiation medium; conditions: 37 °C, up to 4 h

In the case of “GRKKRRQRRRPPQ [^111In-DOTA-labelled Tat]”, the “half-life in human serum” value [1] is listed as 8.8 h and the “brain level following 1-h circulation in mice” value [2] is listed as 0.1 % of injected dose/g.

For TAMRA [reference compound], the “uptake of TAMRA as a single entity into the endothelial cells or the astrocytes” value [3] was “not internalized”.

In the case of TAMRA-KLSSIESDV, the not cleaved [4] was 92.0% ± 12.6% of the initial concentration remaining after 4 h and the not cleaved [5] was 95.7% ± 1.6% remaining after 4 h.

In the case of YGRKKRRQRRR [^125I-labelled Tat], the “half-life in mouse serum” value [1] is listed as 2.7 min.

Source: paper PMC7408072 (Pharmaceutics, 2020)
